Activity calls are given as the source filed them. No cut-off for these calls is given here.
Key:
[1] = test system: RPMI-8226; test: Induction of apoptosis in human RPMI8226 cells assessed as caspase-9 activation at 23 uM by flow cytometric analysis in presence of […]; assay type: functional, cell-based; details: TDE = time-dependent effect
[2] = test system: RPMI-8226; test: Induction of apoptosis in human RPMI8226 cells assessed as caspase-8 activation at 23 uM by flow cytometric analysis in presence of FITC-IETD-FMK; assay type: functional, cell-based; details: TDE = time-dependent effect
[3] = test system: RPMI-8226; test: Induction of apoptosis in human RPMI8226 cells assessed as caspase-3 activation at 23 uM by flow cytometric analysis in presence of […]; assay type: functional, cell-based; details: TDE = time-dependent effect
[4] = test system: RPMI-8226; test: Induction of apoptosis in human RPMI8226 cells assessed as chromatin condensation at 23 uM after 24 to 48 hrs by DAPI staining-based fluorescence microscopic analysis; assay type: functional, cell-based
[5] = test system: RPMI-8226; test: Induction of apoptosis in human RPMI8226 cells assessed as increase in apoptotic cells at 23 uM after 24 to 48 hrs by annexin V-FITC/propidium iodide staining-based flow cytometric analysis; assay type: functional, cell-based
[6] = test system: RPMI-8226; test: Induction of apoptosis in human RPMI8226 cells at 23 uM after 6 hrs by annexin V-FITC/propidium iodide staining-based flow cytometric analysis; assay type: functional, cell-based
[7] = test system: HL-60; test: Cytotoxicity against human HL60 cells assessed as cell viability at 20 uM after 72 hrs by MTT assay; assay type: functional, cell-based
[8] = test system: RPMI-8226; test: Cytotoxicity against human RPMI8226 cells assessed as cell viability after 72 hrs by MTT assay; assay type: functional, cell-based; details: for IC50: RPMI-8226, 72 h
[9] = test system: RPMI-8226; test: Selectivity ratio of Ki for sigma-2 receptor in human RT4 cell homogenates to Ki for sigma-1 receptor in human RPMI8226 cells; assay type: cell-based
[10] = Selectivity ratio of Ki for sigma-2 receptor in rat liver homogenates to Ki for sigma-1 receptor in guinea pig brain homogenates; assay type: tissue-based
[11] = Displacement of [3H]-DTG from sigma-2 receptor in human RT4 cell homogenates in presence of (+)-pentazocine; assay type: tissue-based; details: rt-4
[12] = Displacement of [3H]-DTG from sigma-2 receptor in rat liver homogenates in presence of (+)-pentazocine; assay type: tissue-based
[13] = target: Sigma non-opioid intracellular receptor 1 (Homo sapiens, UniProt Q99720); test: Displacement of [3H]-(+)-pentazocine from sigma-1 receptor in human RPMI8226 cells; assay type: cell-based, RPMI-8226
Sequence of Sigma non-opioid intracellular receptor 1 (Homo sapiens, UniProt Q99720) (Q99720 whole entry): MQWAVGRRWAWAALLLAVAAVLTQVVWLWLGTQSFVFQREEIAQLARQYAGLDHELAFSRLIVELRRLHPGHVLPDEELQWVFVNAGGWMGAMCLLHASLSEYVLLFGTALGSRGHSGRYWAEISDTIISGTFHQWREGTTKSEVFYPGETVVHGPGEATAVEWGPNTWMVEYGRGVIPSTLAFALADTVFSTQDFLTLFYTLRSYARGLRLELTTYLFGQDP

[14] = target: Sigma non-opioid intracellular receptor 1 (Cavia porcellus, UniProt Q60492); test: Displacement of [3H]-(+)-pentazocine from sigma-1 receptor in guinea pig brain homogenates; assay type: tissue-based
Sequence of Sigma non-opioid intracellular receptor 1 (Cavia porcellus, UniProt Q60492) (Q60492 whole entry): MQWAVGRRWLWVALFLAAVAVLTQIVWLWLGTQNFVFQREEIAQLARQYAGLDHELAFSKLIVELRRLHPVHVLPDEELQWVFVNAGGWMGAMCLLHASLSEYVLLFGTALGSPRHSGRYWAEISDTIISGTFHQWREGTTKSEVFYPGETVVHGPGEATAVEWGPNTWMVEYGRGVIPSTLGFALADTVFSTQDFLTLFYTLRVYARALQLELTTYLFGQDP

[15] = test system: RPMI-8226; test: Induction of apoptosis in human RPMI8226 cells assessed as early apoptotic cells at 23 uM after 48 hrs by annexin V-FITC/propidium iodide staining-based flow cytometric analysis in presence of wortmannin; assay type: functional, cell-based
[16] = test system: RPMI-8226; test: Induction of apoptosis in human RPMI8226 cells assessed as early apoptotic cells at 23 uM after 48 hrs by annexin V-FITC/propidium iodide staining-based flow cytometric analysis; assay type: functional, cell-based
[17] = test system: RPMI-8226; test: Induction of autophagy in human RPMI8226 cells assessed as p62 protein expression at 23 uM after 48 hrs by Western blotting analysis in presence of wortmannin; assay type: functional, cell-based
[18] = test system: RPMI-8226; test: Induction of autophagy in human RPMI8226 cells assessed as p62 protein expression at 23 uM after 48 hrs by Western blotting analysis in presence of 3-methyladenine; assay type: functional, cell-based
[19] = test system: RPMI-8226; test: Induction of autophagy in human RPMI8226 cells assessed as […] protein expression at 23 uM after 48 hrs by Western blotting analysis in presence of wortmannin; assay type: functional, cell-based
[20] = test system: RPMI-8226; test: Induction of autophagy in human RPMI8226 cells assessed as […] protein expression at 23 uM after 48 hrs by Western blotting analysis in presence of 3-methyladenine; assay type: functional, cell-based
[21] = test system: RPMI-8226; test: Induction of autophagy in human RPMI8226 cells assessed as p62 protein level at 23 uM after 6 to 96 hrs by Western blotting analysis in presence of alpha-tocopherol; assay type: functional, cell-based
[22] = test system: RPMI-8226; test: Induction of autophagy in human RPMI8226 cells assessed as […] protein level at 23 uM after 6 to 96 hrs by Western blotting analysis in presence of alpha-tocopherol; assay type: functional, cell-based
[23] = test system: RPMI-8226; test: Induction of autophagy in human RPMI8226 cells assessed as p62 protein expression at 23 uM after 6 to 96 hrs by Western blotting analysis; assay type: functional, cell-based
[24] = test system: RPMI-8226; test: Induction of autophagy in human RPMI8226 cells assessed as […] at 23 uM by Western blotting analysis; assay type: functional, cell-based; details: TDE = time-dependent effect
[25] = test system: RPMI-8226; test: Induction of apoptosis in human RPMI8226 cells assessed as early/late apoptotic cells at 23 uM after 48 hrs by annexin V/propidium iodide staining-based flow cytometric analysis in presence of alpha-tocopherol; assay type: functional, cell-based
[26] = test system: RPMI-8226; test: Induction of apoptosis in human RPMI8226 cells assessed as early apoptotic cells at 23 uM after 24 to 48 hrs by annexin V/propidium iodide staining-based flow cytometric analysis in presence of alpha-tocopherol; assay type: functional, cell-based
[27] = test system: RPMI-8226; test: Induction of apoptosis in human RPMI8226 cells assessed as decrease in mitochondrial membrane potential at 23 uM by JC-1 staining-based flow cytometric analysis; assay type: functional, cell-based; details: TDE = time-dependent effect
[28] = test system: RPMI-8226; test: Induction of reactive oxygen species generation in human RPMI8226 cells at 23 uM after 0.5 to 24 hrs by DCFDA dye-based flow cytometric analysis; assay type: functional, cell-based
[29] = test system: RPMI-8226; test: Induction of lipid peroxidation in human RPMI8226 cells at 23 uM after 5 to 24 hrs by flow cytometric analysis in presence of alpha-tocopherol; assay type: functional, cell-based
[30] = test system: RPMI-8226; test: Induction of lipid peroxidation in human RPMI8226 cells at 23 uM after 5 to 24 hrs by flow cytometric analysis; assay type: functional, cell-based
[31] = test system: RPMI-8226; test: Induction of apoptosis in human RPMI8226 cells assessed as dead cells at 36 uM after 48 hrs by annexin V-FITC/propidium iodide staining-based flow cytometric analysis in presence of apoptosis inhibitor 2,2'-methylenebis(1,3-cyclohexandione) relative to control; assay type: functional
[32] = test system: RPMI-8226; test: Induction of apoptosis in human RPMI8226 cells assessed as dead cells at 36 uM after 48 hrs by annexin V-FITC/propidium iodide staining-based flow cytometric analysis relative to control; assay type: functional
[33] = test system: RPMI-8226; test: Induction of apoptosis in human RPMI8226 cells at 36 uM after 48 hrs by annexin V-FITC/propidium iodide staining-based flow cytometric analysis in presence of caspase inhibitor z-VAD-FMK; assay type: functional, cell-based
[34] = test system: RPMI-8226; test: Induction of apoptosis in human RPMI8226 cells assessed as decrease in Bid protein expression at 36 uM up to 96 hrs by Western blotting analysis; assay type: functional, cell-based
[35] = test system: RPMI-8226; test: Induction of apoptosis in human RPMI8226 cells assessed as increase in Bcl2 protein expression at 36 uM by Western blotting analysis; assay type: functional, cell-based; details: TDE = time-dependent effect
[36] = test system: RPMI-8226; test: Induction of apoptosis in human RPMI8226 cells assessed as decrease in Bax protein expression at 36 uM by Western blotting analysis; assay type: functional, cell-based; details: TDE = time-dependent effect
[37] = test system: RPMI-8226; test: Induction of apoptosis in human RPMI8226 cells assessed as caspase-9 protein expression at 36 uM after 6 to 96 hrs by Western blotting analysis; assay type: functional, cell-based
[38] = test system: RPMI-8226; test: Induction of apoptosis in human RPMI8226 cells assessed as PARP-1 cleavage at 36 uM after 6 hrs by Western blotting analysis; assay type: functional, cell-based
[39] = test system: RPMI-8226; test: Induction of apoptosis in human RPMI8226 cells assessed as caspase-8 cleavage at 36 uM after 6 to 96 hrs by Western blotting analysis; assay type: functional, cell-based
[40] = test system: RPMI-8226; test: Induction of apoptosis in human RPMI8226 cells assessed as caspase-9 activation at 36 uM by flow cytometric analysis in presence of […]; assay type: functional, cell-based; details: TDE = time-dependent effect
[41] = test system: RPMI-8226; test: Induction of apoptosis in human RPMI8226 cells assessed as caspase-8 activation at 36 uM by flow cytometric analysis in presence of FITC-IETD-FMK; assay type: functional, cell-based; details: TDE = time-dependent effect
[42] = test system: RPMI-8226; test: Induction of apoptosis in human RPMI8226 cells assessed as caspase-3 activation at 36 uM by flow cytometric analysis in presence of […]; assay type: functional, cell-based; details: TDE = time-dependent effect
[43] = test system: RPMI-8226; test: Induction of apoptosis in human RPMI8226 cells assessed as chromatin condensation at 36 uM after 24 to 48 hrs by DAPI staining-based fluorescence microscopic analysis; assay type: functional, cell-based
[44] = test system: RPMI-8226; test: Induction of apoptosis in human RPMI8226 cells assessed as increase in apoptotic cells at 36 uM after 24 to 48 hrs by annexin V-FITC/propidium iodide staining-based flow cytometric analysis; assay type: functional, cell-based
[45] = test system: RPMI-8226; test: Induction of apoptosis in human RPMI8226 cells at 36 uM after 6 hrs by annexin V-FITC/propidium iodide staining-based flow cytometric analysis; assay type: functional, cell-based
[46] = test system: RPMI-8226; test: Induction of autophagy in human RPMI8226 cells assessed as […] at 36 uM by Western blotting analysis; assay type: functional, cell-based; details: TDE = time-dependent effect
[47] = test system: RPMI-8226; test: Induction of apoptosis in human RPMI8226 cells assessed as early apoptotic cells at 36 uM after 48 hrs by annexin V-FITC/propidium iodide staining-based flow cytometric analysis in presence of wortmannin; assay type: functional, cell-based
[48] = test system: RPMI-8226; test: Induction of apoptosis in human RPMI8226 cells assessed as early apoptotic cells at 36 uM after 48 hrs by annexin V-FITC/propidium iodide staining-based flow cytometric analysis; assay type: functional, cell-based
[49] = test system: RPMI-8226; test: Induction of autophagy in human RPMI8226 cells assessed as p62 protein expression at 36 uM after 6 to 96 hrs by Western blotting analysis; assay type: functional, cell-based
[50] = test system: RPMI-8226; test: Induction of apoptosis in human RPMI8226 cells assessed as early/late apoptotic cells at 36 uM after 48 hrs by annexin V/propidium iodide staining-based flow cytometric analysis in presence of alpha-tocopherol; assay type: functional, cell-based
[51] = test system: RPMI-8226; test: Induction of apoptosis in human RPMI8226 cells assessed as early apoptotic cells at 36 uM after 48 hrs by annexin V/propidium iodide staining-based flow cytometric analysis; assay type: functional, cell-based
[52] = test system: RPMI-8226; test: Induction of apoptosis in human RPMI8226 cells assessed as early apoptotic cells at 36 uM after 24 hrs by annexin V/propidium iodide staining-based flow cytometric analysis; assay type: functional, cell-based
[53] = test system: RPMI-8226; test: Induction of apoptosis in human RPMI8226 cells assessed as early apoptotic cells at 36 uM after 24 hrs by annexin V/propidium iodide staining-based flow cytometric analysis in presence of alpha-tocopherol; assay type: functional, cell-based
[54] = Binding affinity to sigma-2 receptor in rat liver homogenates; assay type: tissue-based
[55] = Binding affinity to sigma-2 receptor in human MCF7 cells; assay type: cell-based

Compound: OCC[C@@H]1CN(CC2CCCCC2)CCN1Cc1ccc(-c2ccccc2)cc1
- Activity [1]: tde
- Activity [2]: tde
- Activity [3]: tde
- Activity [4]: Active
- Activity [5]: Active
- Activity [6]: inactive
- Activity [7]: inactive
- Activity [8]: Dose-dependent effect
- IC50 [8]: 13000 nM
- Ratio Ki [9]: 1.3
- Ratio Ki [10]: 4.5
- Ki [11]: 39 nM
- Ki [12]: 38 nM
- Ki [13]: 29 nM
- Ki [14]: 7.8 nM
- Activity [15]: Active
- Activity [16]: Active
- Activity [17]: inactive
- Activity [18]: inactive
- Activity [19]: Active
- Activity [20]: Active
- Activity [21]: inactive
- Activity [22]: inactive
- Activity [23]: inactive
- Activity [24]: tde
- Activity [25]: inactive
- Activity [26]: inactive
- Activity [27]: tde
- Activity [28]: inactive
- Activity [29]: inactive
- Activity [30]: Active

Compound: OCC[C@H]1CN(CC2CCCCC2)CCN1Cc1ccc(-c2ccccc2)cc1
- Activity [31]: 21%
- Activity [32]: 18%
- Activity [33]: Active
- Activity [34]: inactive
- Activity [35]: tde
- Activity [36]: tde
- Activity [37]: inactive
- Activity [38]: Active
- Activity [39]: Active
- Activity [40]: tde
- Activity [41]: tde
- Activity [42]: tde
- Activity [43]: Active
- Activity [44]: Active
- Activity [45]: inactive
- Activity [7]: inactive
- Activity [8]: Dose-dependent effect
- IC50 [8]: 21300 nM
- Ratio Ki [9]: 1.3
- Ratio Ki [10]: 20.8
- Ki [11]: 43 nM
- Ki [12]: 73 nM
- Ki [13]: 34 nM
- Ki [14]: 3.5 nM
- Activity [46]: tde
- Activity [47]: Active
- Activity [48]: Active
- Activity [49]: inactive
- Activity [50]: inactive
- Activity [51]: inactive
- Activity [52]: Active
- Activity [53]: Active

Compound: COc1ccc(CN2CCN(Cc3ccccc3)CC2)cc1
- Ki [12]: 161 nM

Compound: COc1ccc(CN2CCN(Cc3ccccc3)[C@@H](CO)C2)cc1
- Ratio Ki [10]: 5.8
- Ki [54]: 70 nM

Compound: COc1cccc2c1CCCC2CCCN1CCN(C2CCCCC2)CC1 (stereo not drawn)
- IC50 [8]: 9290 nM
- Ki [55]: 0.28 nM
